From patent US10022354B2, “Pyrrolidine amide compounds as histone demethylase inhibitors” (GENENTECH, INC., priority 2014, dated 2018) come the findings set out here.

One may read the IC50 as the concentration that inhibits the measured activity by half. Read a low IC50 as greater potency in that assay. The EC50 is the midpoint of the concentration-response curve. Low readings indicate an effect from little substance, high ones a need for much substance.

One assay has as its target full length KDM5A enzyme (Homo sapiens (Human), UniProt P29375). As to the kind of experiment: KDM5 Enzyme Assay (KDM5A HTRF). The class given is biochemical. The conditions noted are these: 2 nM full length KDM5A, 100 nM H3K4Me3 peptide, 1 uM 2-OG, 30 min room temperature. Summed up:
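KDM5A demethylase activity was assessed by HTRF using in-house expressed and purified full length human KDM5A at 2 nM with 100 nM biotinylated H3K4Me3 peptide and 1 uM 2-OG. The 10 uL reaction also held 100 uM Fe^2+, 500 uM ascorbate, 50 mM HEPES pH 7.0, 0.01% Triton-X 100, 2 mM DTT and 0.25% DMSO. Detection used Eu-labeled H3K4me1-2 antibody and streptavidin-XL665, read on an Envision reader.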
Background: Time-resolved FRET reads energy transfer from a long-lived donor to a nearby acceptor.

The test system of assay [1] is H3K4Me3 mark level in PC9 cells. The assay is described as follows: KDM5 Cell Assay (H3K4Me3 mark level, PC9 HTRF). It counts as cell-based. The conditions noted are these: Homo sapiens, PC-9, 120 hours at 37° C. The protocol: PC9 cells were seeded in a 384 well plate (2000 cells/well) with a test compound and incubated for 120 hours at 37° C. H3K4Me3 mark level was assessed using HTRF reagents from CisBio. Briefly, media was removed and cells were lysed in 20 μL of Epigeneous Cell Histone lysis buffer C for 45 min at 26° C., shaking. 10 μL of 4 μg/mL acceptor antibody (H3K4me3-d2) and 10 μL of 1.2 μg/mL donor antibody (Total H3-K) in Cell Histone detection buffer were added and the mixture was incubated at 26° C. for 1 hour. Assay plate was read subsequently on Envision (Perkin Elmer). Each compound was run in duplicate. Data were normalized to DMSO treated wells as the low response and EC50's were calculate using a four-parameter fit.

Chain of full length KDM5A enzyme (P29375 whole entry): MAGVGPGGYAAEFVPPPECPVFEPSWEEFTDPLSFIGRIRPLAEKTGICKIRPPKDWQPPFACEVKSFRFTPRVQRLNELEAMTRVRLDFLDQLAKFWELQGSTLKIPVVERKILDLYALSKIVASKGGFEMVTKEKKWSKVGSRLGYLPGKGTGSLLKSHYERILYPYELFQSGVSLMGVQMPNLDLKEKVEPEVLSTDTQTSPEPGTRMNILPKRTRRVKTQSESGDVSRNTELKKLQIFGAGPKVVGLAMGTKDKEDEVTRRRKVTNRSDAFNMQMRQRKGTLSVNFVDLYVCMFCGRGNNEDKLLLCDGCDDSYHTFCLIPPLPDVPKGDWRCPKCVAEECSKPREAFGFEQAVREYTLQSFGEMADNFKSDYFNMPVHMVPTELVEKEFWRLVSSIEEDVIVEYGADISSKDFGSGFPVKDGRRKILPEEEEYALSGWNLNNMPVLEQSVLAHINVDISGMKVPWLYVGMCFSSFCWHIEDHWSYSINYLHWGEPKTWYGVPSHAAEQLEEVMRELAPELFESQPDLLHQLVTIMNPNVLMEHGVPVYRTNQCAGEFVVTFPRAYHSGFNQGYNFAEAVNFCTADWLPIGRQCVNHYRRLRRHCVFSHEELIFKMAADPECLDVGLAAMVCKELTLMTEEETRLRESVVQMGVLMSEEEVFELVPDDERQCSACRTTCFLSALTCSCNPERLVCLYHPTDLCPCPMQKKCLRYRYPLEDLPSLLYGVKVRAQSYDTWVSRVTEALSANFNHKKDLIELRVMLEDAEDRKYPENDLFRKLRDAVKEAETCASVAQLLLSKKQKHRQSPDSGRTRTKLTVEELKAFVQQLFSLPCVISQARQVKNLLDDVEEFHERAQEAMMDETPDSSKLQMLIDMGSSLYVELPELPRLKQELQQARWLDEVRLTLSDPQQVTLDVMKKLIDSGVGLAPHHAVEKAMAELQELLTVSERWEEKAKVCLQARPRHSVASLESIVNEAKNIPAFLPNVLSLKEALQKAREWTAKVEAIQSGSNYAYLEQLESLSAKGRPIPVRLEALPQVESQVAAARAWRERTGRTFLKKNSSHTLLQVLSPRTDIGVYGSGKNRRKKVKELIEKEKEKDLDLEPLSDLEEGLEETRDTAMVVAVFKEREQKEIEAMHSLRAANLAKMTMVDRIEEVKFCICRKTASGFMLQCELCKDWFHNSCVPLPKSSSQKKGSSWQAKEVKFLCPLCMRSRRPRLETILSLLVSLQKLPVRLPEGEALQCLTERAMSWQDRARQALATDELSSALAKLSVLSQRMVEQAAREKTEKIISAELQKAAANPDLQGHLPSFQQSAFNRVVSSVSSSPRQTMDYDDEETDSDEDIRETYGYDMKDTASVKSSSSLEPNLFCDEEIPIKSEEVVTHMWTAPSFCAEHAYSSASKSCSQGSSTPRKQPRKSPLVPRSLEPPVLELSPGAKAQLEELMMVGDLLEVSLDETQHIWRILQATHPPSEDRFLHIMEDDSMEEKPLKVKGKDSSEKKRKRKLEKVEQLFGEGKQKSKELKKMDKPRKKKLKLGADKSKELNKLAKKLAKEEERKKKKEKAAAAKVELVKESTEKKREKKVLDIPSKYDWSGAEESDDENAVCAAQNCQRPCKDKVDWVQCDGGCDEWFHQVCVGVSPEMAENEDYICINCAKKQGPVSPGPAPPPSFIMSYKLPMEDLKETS

Consider `CC(C)c1cc(C(=O)N2CC[C@H](NC(=O)c3ccccc3)C2)[nH]n1` [Example 117], for which the half-inhibitory concentration (IC50) against full length KDM5A enzyme is 0.077 nM. The compound further showed a concentration for a half-maximal effect (EC50) in assay [1] of 8.2 nM.
Regarding `CC(CCc1ccccc1)c1cc(C(=O)N2CCC(NC(=O)C3CC3)C2)[nH]n1` (stereo not shown) [Example 212], half-maximal inhibition against full length KDM5A enzyme (IC50) was put at 0.12 nM. In assay [1], a half-maximal effect (EC50) was put at 11 nM.
For `CC(C)c1cc(C(=O)N2C[C@H](NC(=O)C3CC3)[C@@H](F)C2)[nH]n1` [Example 218], in that order: 0.05 nM and 1.7 nM.
`CC(C)c1cc(C(=O)N2C[C@H](NC(=O)C3CC3)[C@@H](O)C2)[nH]n1` [Example 219] gave a half-maximal inhibitory concentration (IC50) at full length KDM5A enzyme of 0.046 nM. This compound also returned an EC50 in assay [1] of 1.8 nM.
For `CC(C)c1cc(C(=O)N2CC[C@@H](NC(=O)C3(F)CC3)C2)[nH]n1` [Example 221], in that order: 0.051 nM and 2.1 nM.
On the same counts, the results for `CCCOc1ccccc1C(=O)NC1CCN(C(=O)c2cc(C(C)C)n[nH]2)C1` (stereo not shown) [Example 180] are 0.065 nM and 3.2 nM.
On the same counts, the results for `CNC(=O)NC1CCN(C(=O)c2cc(C(C)C)n[nH]2)C1` (stereo not shown) [Example 34, 1-(1-(3-Isopropyl-1H-pyrazole-5-carbonyl)pyrrolidin-3-yl)-3-methylurea] are 0.058 nM and 2.3 nM.
`CC(C)c1cc(C(=O)N2CCC(c3cc(-c4cnn(C)c4)ccn3)C2)[nH]n1` (stereo not shown) [Example 12, (3-Isopropyl-1H-pyrazol-5-yl)(3-(4-(1-methyl-1H-pyrazol-4-yl)pyridin-2-yl)pyrrolidin-1-yl) Methanone] registered a concentration for half-maximal inhibition (IC50) against full length KDM5A enzyme of 0.57 nM. In assay [1], this compound had a half-maximal effective concentration (EC50) of 23 nM.
The compound `CC(C)c1cc(C(=O)N2CC[C@@H](NC(=O)C3(C)CC3)C2)[nH]n1` [Example 224] registered a half-maximal inhibitory concentration (IC50) on full length KDM5A enzyme of 0.074 nM. In assay [1], this compound gave a 50% effective concentration (EC50) of 1.4 nM.
Regarding `CC(C)c1cc(C(=O)N2CCC(NC(=O)C3(C)CCC3)C2)[nH]n1` (stereo not shown) [Example 134], at full length KDM5A enzyme, the 50% inhibitory concentration (IC50) amounted to 0.071 nM. Moreover, in assay [1], the EC50 came to 6.4 nM.
For `CC(C)c1cc(C(=O)N2CC[C@@H](NC(=O)C3CC34CC4)C2)[nH]n1` (stereo partly shown) [Example 228], in that order: 0.078 nM and 1.1 nM.
On the same counts, the results for `CCC1(C(=O)NC2CCN(C(=O)c3cc(C(C)C)n[nH]3)C2)CC1` (stereo not shown) [Example 141] are 0.14 nM and 6.5 nM.
Regarding `CC(C)n1cnc(C(=O)N2CCC(NC(=O)C3CC3)C2)c1` (stereo not shown) [Example 19, N-(1-(1-isopropyl-1H-imidazole-4-carbonyl)pyrrolidin-3-yl)cyclopropanecarboxamide], inhibition on full length KDM5A enzyme was half-maximal at 0.21 nM (IC50). The same compound displayed a concentration giving a half-maximal response (EC50) in assay [1] of 26 nM.
On to `CC(C)c1cc(C(=O)N2CCC(n3cc(Br)c(C(C)C)n3)C2)[nH]n1` (stereo not shown) [Example 238], for which, on full length KDM5A enzyme, 0.15 nM corresponded to half-maximal inhibition (IC50). This compound also returned an EC50 in assay [1] of 7 nM.
For `CC(C)c1cc(C(=O)N2CCC(NC(=O)c3ccc4cc[nH]c4n3)C2)[nH]n1` (stereo not shown) [Example 135], in that order: 0.076 nM and 4.9 nM.
On the same counts, the results for `CC(C)c1cc(C(=O)N2C[C@H](NC(=O)C3CC3)C3(CC3)C2)[nH]n1` [Example 220] are 0.16 nM and 2.5 nM.
On full length KDM5A enzyme, `CC(C)c1cc(C(=O)N2CC[C@H](NC(=O)C3(C)CC3)C2)[nH]n1` [Example 225] gave an IC50 of 0.11 nM. Moreover, the 50% effective concentration (EC50) in assay [1] came to 14 nM.
In turn, `CC(C)c1cc(C(=O)N2CC[C@@H](n3cccc(C4CC4)c3=O)C2)[nH]n1` [Example 41, (R)-3-cyclopropyl-1-(1-(3-isopropyl-1H-pyrazole-5-carbonyl)pyrrolidin-3-yl)pyridin-2(1H)-one] came in with an IC50 against full length KDM5A enzyme of 0.051 nM. In addition, the half-maximal effective concentration (EC50) in assay [1] amounted to 6.8 nM.
On the same counts, the results for `O=C(NC1CCN(C(=O)c2cc(C3CCC3)n[nH]2)C1)C1CC1` (stereo not shown) [Example 210] are 0.16 nM and 6.7 nM.
Consider `CC(C)c1cc(C(=O)N2CCC(n3cc(Br)c(C4CC4)n3)C2)[nH]n1` (stereo not shown) [Example 234], for which half-maximal inhibition against full length KDM5A enzyme (IC50) required 0.16 nM. Further, in assay [1], the EC50 stood at 19 nM.
For `CC(C)c1cc(C(=O)N2CCC(n3cc(Br)cn3)C2)[nH]n1` (stereo not shown) [Example 59], in that order: 0.74 nM and 30 nM.
Compound `CC(C)c1cc(C(=O)N2CC[C@@H](NC(=O)[C@H]3C[C@H]3F)C2)[nH]n1` [Example 222] came in with an IC50 on full length KDM5A enzyme of 0.025 nM. This compound yielded a concentration for a half-maximal effect (EC50) in assay [1] of 1.3 nM.
On the same counts, the results for `CC(C)c1cc(C(=O)N2CCC(N3Cc4ccccc4C3=O)C2)[nH]n1` (stereo not shown) [Example 30, 2-(1-(3-Isopropyl-1H-pyrazole-5-carbonyl)pyrrolidin-3-yl)isoindolin-1-one] are 0.14 nM and 15 nM.
For `CC(CCCc1ccccc1)c1cc(C(=O)N2CCC(NC(=O)C3CC3)C2)n[nH]1` (stereo not shown) [Example 22, N-(1-(5-(5-phenylpentan-2-yl)-1H-pyrazole-3-carbonyl)pyrrolidin-3-yl) cyclopropanecarboxamide], in that order: 0.12 nM and 11 nM.
For `CC(C)c1cc(C(=O)N2CCC(NC(=O)C3(O)CC3)C2)[nH]n1` (stereo not shown) [Example 171], in that order: 0.2 nM and 8.6 nM.
Take `CC(C)c1cc(C(=O)N2CCC(NC(=O)C3(C)CC3)C2)[nH]n1` (stereo not shown) [Example 128]: the 50% inhibitory concentration (IC50) on full length KDM5A enzyme is 0.059 nM. In assay [1], this compound displayed a 50% effective concentration (EC50) of 4.4 nM.
On the same counts, the results for `Cc1cc(-c2cnn(Cc3ccccc3)c2)cc(C2CCN(C(=O)c3cc(C(C)C)n[nH]3)C2)n1` (stereo not shown) [Example 69] are 0.11 nM and 15 nM.
For `CC(C)c1cc(C(=O)N2CC[C@@H](NC(=O)[C@@H]3C[C@H]3F)C2)[nH]n1` [Example 232], in that order: 0.14 nM and 5 nM.
For `CC(C)c1cc(C(=O)N2CC[C@@H](NC(=O)C3CC3)C2)[nH]n1` [Example 29, (R)—N-(1-(3-isopropyl-1H-pyrazole-5-carbonyl)pyrrolidin-3-yl)cyclopropane Carboxamide], in that order: 0.049 nM and 0.93 nM.
